Consider 1 compound from PMC4309560, “Creating Novel Activated Factor XI Inhibitors through Fragment Based Lead Generation and Structure Aided Drug Design” (PLoS ONE, 2015).

Structures are written as SMILES.

Series [1] concerns rat FXIa. In words: Species selectivity: rat FXIa potency. Format: biochemical. As to conditions: rat vs human FXIa.
Series [2] concerns Caco2 cells. Description: Caco2 permeability. Format: in vitro ADME. The conditions noted are these: measured at pH 6.5. The procedure:
A monolayer of Caco2 cells, cultured on semi-permeable polycarbonate surfaces, was used to study the permeability in the apical to basolateral direction. The process was atomized by a robotic Tecan EVO platform (Männerdorf, Switzerland) and 24-transwell plates from Costar (Cambridge, MA, USA). HBSS buffer pH 7.4 was dispensed to the basal side of the monolayer. […] Samples for quantitative analysis by LC/MS/MS were withdrawn before the addition of the test substrate and at 45 and 120 min post addition of the test substrate. During incubation the transwell plates were placed in a shaking incubator at 37°C between sampling. The peak areas were exported to Excel where Papp-values and recoveries were calculated. Twenty-two reference compounds with known human oral bioavailability were used to establish a correlation curve with Papp versus the fraction of the oral dose absorbed (fa).
Background: Caco-2 cells form a polarised layer with tight junctions and transporters.

Series [3] concerns the target T1, FXIa CD (Homo sapiens, UniProt P03951, C500S/K455A/S452A/T493A).
T1 construct: purification of the catalytic domain (residues 370–607) was carried out as described by Jin et al; made in house
In words: FXIa surface plasmon resonance (Biacore) inhibition in solution assay. It counts as binding. The source says: SPR. […] The SPR data were then used to rank and select compounds for X-ray crystallography experiments. The SPR method was based on an inhibition in solution assay in which compound 4, immobilized on the biosensor surface, served as a probe for the FXIa catalytic site. […] Fig. 4 illustrates the design of compound 4 based on the crystal structure of FXIa in complex with compound 1. Since any ligand that binds to the S1 pocket competes with compound 4 for binding to FXIa CD, it is possible to derive the K D for that ligand [60]. The initial binding rate of the protein to compound 4, K on, was used to determine the percentage of free protein in solution which changed by varying the concentration of the competing ligand. The free protein concentration was plotted against the logarithm of the ligand concentration and a sigmoidal dose–response curve-fit model was applied to determine the K D-value.
The tethered free amine ligand 4 was covalently linked to the dextran layer on the CM5 sensor chip (GE Healthcare/Biacore) using the Amine Coupling Kit (Healthcare/Biacore) and performed according to the manufacturer’s recommendations. Carboxyl groups on the dextran layer were activated by injecting a 1:1 mixture of 0.5 M N-ethyl-N’ (3-dimethylaminopropyl)-carbodiimide and 0.5 M N-hydroxysuccinimide at 10 μL/min for 7 min. The activated carboxyl groups on the control channels were blocked by injecting a 1 M ethanolamine solution for 7 min at 10 μL/min. […] The remaining activated groups were blocked with 1 M ethanolamine. Compounds were tested in a concentration response curve. The compounds were serially diluted 1:3 in DMSO to form a 10-point concentration response curve with 5 mM for the highest concentration. The FXIa CD was added to the plate at a final concentration of 50 nM and the mixture was incubated for 15 min at RT. The plate was then sealed and placed in the Biacore 3000 instrument. Samples were injected at 20 μL/min for 2 min. […] The value used to calculate percent inhibition of binding was the slope of the response measured 8 s after the start of the injection. […]
Background: SPR reads the build-up and loss of mass on a sensor chip optically.

Series [4] relates to FXa, thrombin, trypsin, plasma kallikrein (PKK), FIXa, tissue plasminogen activator (tPA) and plasmin. In words: Serine protease selectivity panel (statements on the whole panel). Format: biochemical, human. The conditions noted are these: relative to FXIa. The procedure: Enzymatic assay. […] Selected compounds were also screened against other serine proteases to evaluate their selectivity profiles. All protease activities were determined by chromogenic assays monitoring the release of para-nitroanilide at 405 nm.
It is important to achieve potent FXIa inhibitors with high selectivity vs. other serine proteases in order to minimize risk for adverse effects, particularly with regard to bleeding, which limits the utility of current antithrombotic drugs, e.g. dabigatran and rivaroxaban. Selectivity data for FXa, thrombin, trypsin, plasma kallikrein (PKK), FIXa, tissue plasminogen activator (tPA) and plasmin were therefore generated and are summarized in Fig. 6. […].
Once the compounds were synthesized and characterized, enzymatic assays were performed to evaluate the inhibitory activity of the resulting compounds against FXIa and other serine proteases. All protease activities were determined by chromogenic assays monitoring the release of para-nitroanilide at 405 nm. IC50 values for the compounds were determined using equation: Q= V/(1+([I]/IC50)^n) Q denotes the assay readout, V denotes the uninhibited velocity of the enzyme, [I] denotes the inhibitor concentration, n denotes the slope and IC50 is the inhibitor concentration at V/2.

The target in series [5] is T2, Human recombinant thrombin (Homo sapiens, UniProt P00734).
T2 construct: Human recombinant thrombin was prepared in house; made in house
In words: Thrombin (FIIa) chromogenic assay. Format: biochemical. As to conditions: read-out: FIIa % inhibition at 99 μM. The procedure:
(§1) Enzymatic assay. […] Selected compounds were also screened against other serine proteases to evaluate their selectivity profiles.
(§2) Once the compounds were synthesized and characterized, enzymatic assays were performed to evaluate the inhibitory activity of the resulting compounds against FXIa and other serine proteases. […] IC50 values for the compounds were determined using equation: Q= V/(1+([I]/IC50)^n) Q denotes the assay readout, V denotes the uninhibited velocity of the enzyme, [I] denotes the inhibitor concentration, n denotes the slope and IC50 is the inhibitor concentration at V/2.
(§3) [S] denotes the substrate concentration.
Thrombin. Human recombinant thrombin was prepared in house.

Series [6] deals with Human tPA (Homo sapiens, UniProt P00750). Description: biochemical. As to conditions: read-out: tPA % inhibition at 99 μM. The procedure:
as §1, §2
tPa. Human tPA was from Biopool, Umeå, Sweden.

Series [7] deals with T3, Human PKK (Homo sapiens, UniProt P03952).
T3 construct: trypsin, plasma kallikrein (PKK), FIXa; purchased Calbiochem, Darmstadt, Germany
In words: PKK (plasma kallikrein) chromogenic assay. Format: biochemical. The procedure: as §1, §2, §3
PKK. Human PKK was from Calbiochem, Darmstadt, Germany.

Series [8] is described as follows: Caco2 efflux. It counts as in vitro ADME. The conditions noted are these: human, Caco-2; Caco2, Papp B to A / Papp A to B, pH 7.4 at side A. The source says: Efflux was studied in the same Caco2 cells with the modification that HBSS buffer pH 7.4 was used on both sides of the monolayer. The permeability was studied in the apical to basolateral direction (Papp AB) as well as in the basolateral to apical direction and (Papp BA). Efflux ratios were derived from the following equation: Papp BA/Papp AB.

T3 sequence (P03952 391-638 limits assumed): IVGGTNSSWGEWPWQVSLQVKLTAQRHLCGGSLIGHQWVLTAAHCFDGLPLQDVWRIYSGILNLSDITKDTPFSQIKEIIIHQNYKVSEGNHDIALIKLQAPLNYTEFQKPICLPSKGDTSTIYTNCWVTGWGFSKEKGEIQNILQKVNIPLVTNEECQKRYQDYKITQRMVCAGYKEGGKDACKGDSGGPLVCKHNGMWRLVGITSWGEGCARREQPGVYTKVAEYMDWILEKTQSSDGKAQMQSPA
T3 sequence (P03952 20-390 partner limits assumed): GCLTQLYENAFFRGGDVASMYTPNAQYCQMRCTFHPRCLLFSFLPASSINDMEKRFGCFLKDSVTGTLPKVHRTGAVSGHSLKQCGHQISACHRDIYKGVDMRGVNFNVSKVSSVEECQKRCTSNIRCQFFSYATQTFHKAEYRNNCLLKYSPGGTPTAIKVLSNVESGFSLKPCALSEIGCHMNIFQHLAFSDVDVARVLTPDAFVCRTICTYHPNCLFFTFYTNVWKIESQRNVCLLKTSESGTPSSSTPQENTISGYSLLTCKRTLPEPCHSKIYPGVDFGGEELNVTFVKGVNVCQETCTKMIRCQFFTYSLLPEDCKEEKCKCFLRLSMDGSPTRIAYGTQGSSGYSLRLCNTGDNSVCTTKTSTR
T1 sequence (P03951 388-625 S452A/K455A/T493A/C500S): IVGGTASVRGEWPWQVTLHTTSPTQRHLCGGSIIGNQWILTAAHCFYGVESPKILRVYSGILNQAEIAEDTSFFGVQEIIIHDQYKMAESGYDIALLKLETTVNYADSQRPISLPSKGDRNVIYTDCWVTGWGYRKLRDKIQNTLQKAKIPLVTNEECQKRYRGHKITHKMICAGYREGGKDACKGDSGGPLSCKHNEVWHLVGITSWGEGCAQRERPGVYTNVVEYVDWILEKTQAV
Sequence of Human tPA (P00750 36-562): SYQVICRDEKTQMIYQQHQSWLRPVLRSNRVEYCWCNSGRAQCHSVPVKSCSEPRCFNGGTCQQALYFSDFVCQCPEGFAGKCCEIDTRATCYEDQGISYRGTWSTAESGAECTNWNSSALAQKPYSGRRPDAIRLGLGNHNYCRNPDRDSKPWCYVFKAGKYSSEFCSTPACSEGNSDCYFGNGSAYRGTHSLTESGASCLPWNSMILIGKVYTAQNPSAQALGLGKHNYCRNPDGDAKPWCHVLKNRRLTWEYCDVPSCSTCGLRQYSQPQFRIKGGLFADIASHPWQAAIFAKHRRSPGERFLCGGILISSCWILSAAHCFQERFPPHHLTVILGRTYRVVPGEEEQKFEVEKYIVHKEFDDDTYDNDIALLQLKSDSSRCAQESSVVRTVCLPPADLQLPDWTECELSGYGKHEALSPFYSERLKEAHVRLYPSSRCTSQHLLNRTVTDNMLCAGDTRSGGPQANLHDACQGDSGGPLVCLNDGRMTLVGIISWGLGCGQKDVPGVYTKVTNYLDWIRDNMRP

The term Kd denotes the equilibrium constant for the complex coming apart. Low values mean a tighter complex, high ones a looser complex. What is called inhibition is the share of the control response that was lost under treatment. In general, IC50 refers to the concentration that gives 50% inhibition. A high value points to weaker potency in that assay. The term Ki denotes the equilibrium dissociation constant of an inhibitor or competing ligand from its target. Read a high Ki as a looser hold on the target. As usually defined, the efflux ratio is a quotient of directional permeabilities that is used to spot active efflux. As for `O=C(N[C@@H](Cc1ccccc1)C(=O)NCc1cc(=O)[nH]c2ccc(Cl)cc12)c1ccc2[nH]c(=O)cc(O)c2c1` [Compound 13, (S)-N-(1-{(6-Chloro-2-oxo-1,2-dihydroquinolin-4-yl)methylamino}-1-oxo-3-phenylpropan-2-yl)-4-hydroxy-2-oxo-1,2-dihydroquinoline-6-carboxamide], the “potency against rat FXIa relative to human FXIa (fold less potent)” value in series [1] was “about 30000 fold”. Also, in series [2], the “Caco2 A to B permeability” value is reported as < 0.28 1·10^-6 cm/s. In series [3], this compound showed a Kd of 0.5 nM. Further, in series [4], the “selectivity vs. all proteases in the panel, except PKK” value is reported as “more than five orders of magnitude selectivity”. The inhibition at 99 µM was 11% in series [5] and 2% in series [6]. In addition, it took 27 nM to reach half-maximal inhibition in series [7] (IC50). Moreover, the “selectivity vs. PKK” value in series [7] (FXIa over PKK, for 13 based on Ki values) amounted to 11 fold. This compound also gave a Ki in series [7] (converted from IC50) of 5.6 nM. Further, in series [8], the efflux ratio was more than 4.6.
